Measured values taken from PubChem BioAssay AID212 (DTP/NCI, 2004).
“And” between values parts separate entries of the source, which are not always exact repeats. Identical values can stand only once. Records with an inconclusive call do not appear.

Test system: BDF1 mice, colon carcinoma 38 sc, T/C %
Assay: NCI In Vivo Anticancer Drug Screen. Data for tumor model Colon Carcinoma 38 (subcutaneous) in B6D2F1 (BDF1) mice
Conditions: endpoint: median tumor weight (est.), higher = larger tumour
Procedure, shortened: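 Ratio of survival or tumor size, compound-treated animals relative to vehicle controls, in tumor-bearing mice.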

[1] = dose: 12.5 mg/kg/injection, schedule: Q07DX002 (ip), vehicle: saline
[2] = dose: 12.5 mg/kg/injection, schedule: Q07DX002 (ip), vehicle: Klucel (hydroxypropylcellulose) (HPC)
[3] = dose: 25.0 mg/kg/injection, schedule: Q07DX002 (ip), vehicle: Klucel (hydroxypropylcellulose) (HPC)
[4] = dose: 50.0 mg/kg/injection, schedule: Q07DX002 (ip), vehicle: Klucel (hydroxypropylcellulose) (HPC)
[5] = dose: 100.0 mg/kg/injection, schedule: Q07DX002 (ip), vehicle: Klucel (hydroxypropylcellulose) (HPC)
[6] = dose: 200.0 mg/kg/injection, schedule: Q07DX002 (ip), vehicle: Klucel (hydroxypropylcellulose) (HPC)
[7] = dose: 50.0 mg/kg/injection, schedule: Q07DX002 (ip), vehicle: water
[8] = dose: 6.25 mg/kg/injection, schedule: Q07DX002 (ip), vehicle: saline with Tween-80
[9] = dose: 12.5 mg/kg/injection, schedule: Q07DX002 (ip), vehicle: saline with Tween-80
[10] = dose: 50.0 mg/kg/injection, schedule: Q07DX002 (ip), vehicle: saline with Tween-80
[11] = dose: 100.0 mg/kg/injection, schedule: Q07DX002 (ip), vehicle: saline with Tween-80
[12] = dose: 400.0 mg/kg/injection, schedule: Q07DX002 (ip), vehicle: saline with Tween-80

## C[n+]1c(-c2cccc3ccccc23)c2cc(N)ccc2c2ccccc21
dose: 3.12 mg/kg/injection, schedule: Q07DX002 (ip), vehicle: saline
  T/C: 107 % of control
dose: 3.12 mg/kg/injection, schedule: Q07DX002 (ip), vehicle: suspension in saline
  T/C: 160 % of control
dose: 6.25 mg/kg/injection, schedule: Q07DX002 (ip), vehicle: saline
  T/C: 122 % of control
dose: 6.25 mg/kg/injection, schedule: Q07DX002 (ip), vehicle: suspension in saline
  T/C: 110 % of control
[1]
  T/C: 64 % of control and 85 % of control
dose: 12.5 mg/kg/injection, schedule: Q07DX002 (ip), vehicle: suspension in saline
  T/C: 256 % of control
dose: 25.0 mg/kg/injection, schedule: Q07DX002 (ip), vehicle: saline
  T/C: 67 % of control and 79 % of control
dose: 25.0 mg/kg/injection, schedule: Q07DX002 (ip), vehicle: suspension in saline
  T/C: 193 % of control

## CC(=O)OC1(C)CC(C)C(=O)C(C(O)CC2CC(=O)NC(=O)C2)C1 (configuration not stated)
dose: 47.0 micrograms/kg/injection, schedule: Q07DX002 (ip), vehicle: saline
  T/C: 106 % of control
dose: 94.0 micrograms/kg/injection, schedule: Q07DX002 (ip), vehicle: saline
  T/C: 123 % of control
dose: 188.0 micrograms/kg/injection, schedule: Q07DX002 (ip), vehicle: saline
  T/C: 116 % of control
dose: 375.0 micrograms/kg/injection, schedule: Q07DX002 (ip), vehicle: saline
  T/C: 117 % of control
dose: 750.0 micrograms/kg/injection, schedule: Q07DX002 (ip), vehicle: saline
  T/C: 101 % of control

## COC1=C(C)C(=O)C2=C(C1=O)C1C3CC4=C(C(=O)C(OC)=C(C)C4=O)C(CNC(=O)C(C)=O)N3C(C#N)C(C2)N1C (configuration not stated)
dose: 0.16 mg/kg/injection, schedule: Q07DX002 (ip), vehicle: Klucel (hydroxypropylcellulose) (HPC)
  T/C: 56 % of control
dose: 0.25 mg/kg/injection, schedule: Q07DX002 (ip), vehicle: Klucel (hydroxypropylcellulose) (HPC)
  T/C: 98 % of control
dose: 0.31 mg/kg/injection, schedule: Q07DX002 (ip), vehicle: Klucel (hydroxypropylcellulose) (HPC)
  T/C: 84 % of control
dose: 0.5 mg/kg/injection, schedule: Q07DX002 (ip), vehicle: Klucel (hydroxypropylcellulose) (HPC)
  T/C: 84 % of control
dose: 0.62 mg/kg/injection, schedule: Q07DX002 (ip), vehicle: Klucel (hydroxypropylcellulose) (HPC)
  T/C: 80 % of control
dose: 1.0 mg/kg/injection, schedule: Q07DX002 (ip), vehicle: Klucel (hydroxypropylcellulose) (HPC)
  T/C: 87 % of control
dose: 1.25 mg/kg/injection, schedule: Q07DX002 (ip), vehicle: Klucel (hydroxypropylcellulose) (HPC)
  T/C: 53 % of control and 73 % of control
dose: 2.0 mg/kg/injection, schedule: Q07DX002 (ip), vehicle: Klucel (hydroxypropylcellulose) (HPC)
  T/C: 72 % of control
dose: 4.0 mg/kg/injection, schedule: Q07DX002 (ip), vehicle: Klucel (hydroxypropylcellulose) (HPC)
  T/C: 77 % of control

## CC(=O)OCC(=O)[C@@]12OC(C)(C)O[C@@H]1C[C@H]1[C@@H]3CC(C=O)=C4C=C(OCCCl)CC[C@]4(C)[C@@]3(F)[C@@H](O)C[C@@]12C
[2]
  T/C: 86 % of control
dose: 12.5 mg/kg/injection, schedule: Q07DX003 (ip), vehicle: Klucel (hydroxypropylcellulose) (HPC)
  T/C: 62 % of control and 76 % of control
[3]
  T/C: 58 % of control
dose: 25.0 mg/kg/injection, schedule: Q07DX003 (ip), vehicle: Klucel (hydroxypropylcellulose) (HPC)
  T/C: 33 % of control and 57 % of control
[4]
  T/C: 86 % of control
[5]
  T/C: 94 % of control
dose: 100.0 mg/kg/injection, schedule: Q07DX003 (ip), vehicle: Klucel (hydroxypropylcellulose) (HPC)
  T/C: 57 % of control
[6]
  T/C: 54 % of control
dose: 200.0 mg/kg/injection, schedule: Q07DX003 (ip), vehicle: Klucel (hydroxypropylcellulose) (HPC)
  T/C: 48 % of control

## CC1(O)C=CC(=O)C=C1
[7]
  T/C: 114 % of control

## Cc1cc2cc3cc(C)c(N)cc3nc2cc1N
[8]
  T/C: 95 % of control
[9]
  T/C: 109 % of control
[10]
  T/C: 54 % of control
[11]
  T/C: 89 % of control

## O=C(C#Cc1ccccc1)c1ccccc1
dose: 3.12 mg/kg/injection, schedule: Q07DX002 (ip), vehicle: Klucel (hydroxypropylcellulose) (HPC)
  T/C: 73 % of control
dose: 3.12 mg/kg/injection, schedule: Q07DX002 (ip), vehicle: water
  T/C: 106 % of control
dose: 6.25 mg/kg/injection, schedule: Q07DX002 (ip), vehicle: water
  T/C: 77 % of control
[2]
  T/C: 83 % of control
dose: 12.5 mg/kg/injection, schedule: Q07DX002 (ip), vehicle: water
  T/C: 110 % of control
[3]
  T/C: 101 % of control
dose: 25.0 mg/kg/injection, schedule: Q07DX002 (ip), vehicle: water
  T/C: 117 % of control
[7]
  T/C: 54 % of control

## NC1=NC(O)C=C1 (configuration not stated)
dose: 7.5 mg/kg/injection, schedule: Q07DX002 (ip), vehicle: saline
  T/C: 90 % of control
dose: 15.0 mg/kg/injection, schedule: Q07DX002 (ip), vehicle: saline
  T/C: 103 % of control
dose: 30.0 mg/kg/injection, schedule: Q07DX002 (ip), vehicle: saline
  T/C: 100 % of control
dose: 60.0 mg/kg/injection, schedule: Q07DX002 (ip), vehicle: saline
  T/C: 87 % of control

## O=C(Nc1nncs1)c1cccs1
[11]
  T/C: 87 % of control and 88 % of control

## O=C1N[C@H]2[C@H](CS[C@H]2CCCCC(=O)N(CCP(c2ccccc2)c2ccccc2)CCP(c2ccccc2)c2ccccc2)N1
[4]
  T/C: 71 % of control
[5]
  T/C: 71 % of control
[6]
  T/C: 91 % of control
dose: 400.0 mg/kg/injection, schedule: Q07DX002 (ip), vehicle: Klucel (hydroxypropylcellulose) (HPC)
  T/C: 96 % of control
dose: 800.0 mg/kg/injection, schedule: Q07DX002 (ip), vehicle: Klucel (hydroxypropylcellulose) (HPC)
  T/C: 89 % of control

## Cc1cc(O)c2c(c1O)C(=O)c1cccc(O)c1C2=O
dose: 0.18 mg/kg/injection, schedule: Q07DX002 (ip), vehicle: Klucel (hydroxypropylcellulose) (HPC)
  T/C: 86 % of control
dose: 0.37 mg/kg/injection, schedule: Q07DX002 (ip), vehicle: Klucel (hydroxypropylcellulose) (HPC)
  T/C: 60 % of control
dose: 0.75 mg/kg/injection, schedule: Q07DX002 (ip), vehicle: Klucel (hydroxypropylcellulose) (HPC)
  T/C: 59 % of control
dose: 1.5 mg/kg/injection, schedule: Q07DX002 (ip), vehicle: Klucel (hydroxypropylcellulose) (HPC)
  T/C: 110 % of control

## CCCCOCN(COCCCC)C(C)Cc1ccccc1 (configuration not stated)
dose: 25.0 mg/kg/injection, schedule: Q07DX002 (ip), vehicle: saline with Tween-80
  T/C: 85 % of control and 106 % of control
[10]
  T/C: 120 % of control and 99 % of control

## C(COCCOCC1CO1)OCCOCC1CO1 (configuration not stated)
[9]
  T/C: 88 % of control
[1]
  T/C: 102 % of control
dose: 50.0 mg/kg/injection, schedule: Q07DX002 (ip), vehicle: saline
  T/C: 158 % of control
dose: 100.0 mg/kg/injection, schedule: Q07DX002 (ip), vehicle: saline
  T/C: 84 % of control
dose: 200.0 mg/kg/injection, schedule: Q07DX002 (ip), vehicle: saline with Tween-80
  T/C: 113 % of control
[12]
  T/C: 99 % of control
dose: 400.0 mg/kg/injection, schedule: Q07DX002 (ip), vehicle: saline
  T/C: 68 % of control

## Clc1ccc(C(c2ccccc2Cl)C(Cl)Cl)cc1 (configuration not stated)
dose: 25.0 mg/kg/injection, schedule: Q07DX003 (ip), vehicle: saline with Tween-80
  T/C: 39 % of control
dose: 50.0 mg/kg/injection, schedule: Q07DX003 (ip), vehicle: saline with Tween-80
  T/C: 59 % of control
dose: 100.0 mg/kg/injection, schedule: Q07DX003 (ip), vehicle: saline with Tween-80
  T/C: 80 % of control
dose: 200.0 mg/kg/injection, schedule: Q07DX003 (ip), vehicle: saline with Tween-80
  T/C: 63 % of control
dose: 400.0 mg/kg/injection, schedule: Q07DX003 (ip), vehicle: saline with Tween-80
  T/C: 95 % of control

## CCCCCCCC(=O)OCC(=O)[C@]1(O)Cc2c(O)c3c(c(O)c2[C@@H](OC2CC(N)C(O)C(C)O2)C1)C(=O)c1c(OC)cccc1C3=O (some centres not stated)
dose: 2.0 mg/kg/injection, schedule: Q07DX002 (ip), vehicle: suspension in saline
  T/C: 75 % of control
dose: 4.0 mg/kg/injection, schedule: Q07DX002 (ip), vehicle: suspension in saline
  T/C: 70 % of control
dose: 8.0 mg/kg/injection, schedule: Q07DX002 (ip), vehicle: suspension in saline
  T/C: 37 % of control

## COC(=O)Nc1ccc(Cc2ccc(NC(=O)OC)cc2)cc1
[8]
  T/C: 60 % of control
[12]
  T/C: 87 % of control and 102 % of control
